Laboratory results reported in patent US20250082648A1, “COMPOSITIONS AND METHODS FOR ENHANCING KRAS INHIBITOR OR SHP2 INHIBITOR EFFICACY” (New York University, priority 2023, published 2025).

Assays:
[1] = tested on: KCL syngeneic tumor grafts; test: KCL syngeneic tumor grafts in C57BL/6J mice; format: in vivo, mouse; conditions: MRTX-849 100 mg/kg/d, 30 days of treatment; VT104 10 mg/kg/d
Protocol: (§1) For syngeneic tumor experiments, KCL cells (10^6 in 200 ml PBS) were injected subcutaneously into the right flanks of male C57BL/6J mice (Jackson Laboratory). For xenografts, H2030 cells (5×10^6) were injected subcutaneously into the right flanks of Crl:NU-Foxn1nu/nu mice (Charles River, #088) with a 1:1 mixture of cell suspension in Matrigel (Corning, Cat #354234). […] Mice were weighed two times a week prior to dosing and throughout the study. Tumors were measured in 2 dimensions (length and width) twice a week and volumes (mm^3) were calculated as (length×width^2)/2).

[2] = tested on: H2030 cell-derived xenografts; test: H2030 cell-derived xenografts in nu/nu mice; format: in vivo, mouse; conditions: MRTX-849 100 mg/kg/d, 30 days of treatment; VT104 10 mg/kg/d
Protocol: as §1

NSCLC lines = test: Cell viability and proliferation assays (CCK8, trypan blue counts, Bliss analysis); format: cell-based, human; conditions: for effect on MRTX-849 action: multiple NSCLC lines, including those not STK11 and/or KEAP1 mutant
Protocol: Cell viability and proliferation assays. […] Media (including inhibitors) were replaced every two days. Dose-response curves were generated using the […] Cell Counting Kit-8 (CCK8) assay (Enzo, ALX-850-039-KI02). Three hours after addition of CCK-8 reagent to cells, A450 was recorded using a FlexStation 3 multi-mode microplate reader according to the manufacturer's instructions. IC50s were calculated with GraphPad Prism. For all other proliferation assays, cells were harvested and stained with trypan blue (#T8154, Sigma-Aldrich), and viable (trypan blue-excluding) cells were quantified with a Countless II automated cell counter (Invitrogen).

YAP1 = YAP1 and DAPI immunofluorescence (YAP1 nuclear localization); format: cell-based
Text: […]. […] Datasets (color-coded) used for pathway analysis are indicated at right with the sizes of the circles indicating statistical significance. […]. All immunofluorescence images are representative of three independent experiments. Scale bar=20 μm.
. FIG. 4B is a bubble plot showing pathways (p<0.05) enriched in SL genes (FDR<0.1). Datasets used for analysis are color-coded at right; the sizes of the circles indicate significance level. FIG. 4C is a Circos plot illustrating the overlap of SL genes (FDR<0.1) between lines. […]. FIGS. 10C-10D show quantification of YAP nuclear localization in presence of ROCK-I, in data from FIGS. 3G-3H. *p<0.05, 1-way ANOVA with Tukey's multiple comparisons test.

KCL cells = test: Cell viability and proliferation assays (CCK8, trypan blue counts); conditions: combined with MRTX-849 at its IC50 dose
[3] = preliminary results; cited from earlier work
YAP = test: YAP1 immunofluorescence (nuclear localization); format: cell-based, human
Protocol: Immunofluorescence. […]. Cells were then fixed in 4% paraformaldehyde for 10 minutes at room temperature, rinsed three times for 5 min. each in PBS, and permeabilized in 0.1% Triton X-100/5% FBS in PBS for a 1 hr at RT. […] Nuclei were stained with DAPI (BioLegend, Cat #: 422801) for 5 min, and slides were washed two more times in PBS before mounting with Fluorescence Mounting Medium (Dako, Cat #: S3023). Images were acquired with a Zeiss 880 Laser Scanning Confocal Microscope (Axio Observer) equipped with Zen 3.0 software (ZEN blue, Carl Zeiss Inc.) and were processed by Fiji software (NIH).

H2122 cells = conditions: individual H2122 data (top); MRTX-849 vs vehicle 48 hr
Protocol: Bulk RNA-seq was performed on total RNA from cell lines or isolated tumor cells by the PCC Genome Technology Center Shared Resource (GTC). Libraries were prepared with the Illumina TruSeq Stranded Total RNA Sample Preparation Kit and sequenced on an Illumina NovaSeq 6000 platform utilizing 150-bp paired end reads. Sequencing data were de-multiplexed and transformed into FASTQ format by using Illumina bcl2fastq software. […] Briefly, sequencing results were transformed into FASTQ format by using Illumina bcl2fastq software. Reads were adapter- and quality-trimmed using Trimmomatic before alignment with the human or mouse genome using the splice-aware STAR aligner. Using featureCounts (49), counts for each gene were created based on the number of aligned reads overlapping its exons. These counts were standardized and subsequently evaluated for differential expression via the DESeq2 R package, using negative binomial generalized linear models. Lastly, the Enrichr tool was employed for pathway analysis of the bulk RNA-seq data.

KCL lung tumors = test: KCL GEMM (KRAS G12C; Stk11 fl/fl, Ad-Cre) long-term treatment, MRI monitoring; conditions: MRTX849 100 mg/kg/d plus SHP099 75 mg/kg/d; resistant tumors soon recurred

C[C@H](NC(=O)c1ccc2c(-c3ccc(C(F)(F)F)cc3)cccc2c1)c1ccccn1 [VT104]
tumor response [1]: minimal
tumor response [2]: minimal

C[C@@H](NC(=O)c1ccc2c(-c3ccc(C(F)(F)F)cc3)cccc2c1)c1cccc(N)n1 [VT106]
effect on drug sensitivity (NSCLC lines; inactive analog control): no effect

C[C@@H](N)[C@H]1CC[C@H](C(=O)Nc2ccncc2)CC1 [Y-27632]
MRTX-849-induced YAP1 nuclear localization (YAP1; NSCLC lines, MRTX-849 at IC50 with or without Y-27632 (10 μM)): impairs MRTX-849-induced YAP1 nuclear localization

C=C(F)C(=O)N1C[C@@H](Nc2ncccn2)[C@H](OCc2ccc(C(F)(F)F)cc2)C1 [MYF-03-176]
IC50 in YAP1 over-expressing cells (KCL cells): higher

C=CC(=O)N1C[C@@H](n2cc(-c3cccnc3)nn2)[C@H](OCc2ccc(C(F)(F)F)cc2)C1 [MYF-03-69]
effect on MRTX-849 action (NSCLC lines): synergistically augmented

C[C@H](NC(=O)c1ccc2c(-c3ccc(C(F)(F)F)cc3)cccc2c1)c1ccccn1 [VT-104]
IC50 in YAP1 over-expressing cells (KCL cells): higher
effect on efficacy of combination MRTX849/TNO-155 (NSCLC lines; NSCLC lines, vs single agent or two drug-combinations, all at reduced doses): increased the efficacy
effect on MRTX-849 action (NSCLC lines): synergistically augmented

C[C@H](CO)NC(=O)c1ccc2c(Oc3ccc(C(F)(F)F)cc3)cccc2c1 [VT3989]
safety in phase 1 clinical trial [3]: safe with manageable toxicity

C=C(F)C(=O)N1CCN(c2nc(OC[C@@H]3CCCN3C)nc3c2CCN(c2cccc4cccc(Cl)c24)C3)C[C@@H]1CC#N [MRTX-849, adagrasib]
nuclear translocation of YAP (YAP1; H2030, H2122, H23, MiaPaca2 cells, MRTX-849 at IC50): induces RHO/ROCK-dependent nuclear translocation of YAP
levels of nuclear YAP (YAP; H2030 cells): increased
time at which nuclear YAP increase begins (YAP; H2030 cells): 4 h
time at which nuclear YAP peaks (YAP; H2030 cells): 24 to 48 h
PSAP RNA-seq, column median2 (H2122 cells): 0.7802

CC1(N)CCN(c2cnc(-c3cccc(Cl)c3Cl)c(N)n2)CC1 [SHP099]
response of tumors recurred after prolonged MRTX-849 treatment (KCL lung tumors): partial responses

C[C@@H](N)[C@H]1CC[C@H](C(=O)Nc2ccncc2)CC1 [Y27632]
effect of addition on MRTX-849 efficacy (NSCLC lines; two cell lines tested): increased MRTX-849 efficacy
YAP nuclear translocation induced by MRTX treatment (YAP; MRTX treatment for 24 hr plus ROCK inhibitor): inhibited
YAP nuclear translocation induced by MRTX treatment (YAP; after 48h of treatment plus ROCK inhibitor): to an even greater extent
